Measured values as given in publication PMC10726451, “MAIP: An Open-Source Tool to Enrich High-Throughput Screening Output and Identify Novel, Druglike Molecules with Antimalarial Activity” (ACS Medicinal Chemistry Letters, 2023).
Values after ≈ are worked out from the molar mass of the structure shown. Read-outs that look alike come from different tables or passages of the source.

Tests used:
P. falciparum 3D7 [1] = test system: P. falciparum 3D7; parameters: method as in ChEMBL (version 32), ref 29; conditions: ref ChEMBL (version 32), cited from earlier work
P. falciparum Dd2 = P. falciparum Dd2 parasite growth, pLDH readout, 72 h incubation; type: cell-based; conditions: Plasmodium falciparum, read-out: Dd2 LDH (72 h) IC50
Description: (§1) Here, this state of the art screening platform was applied to CQL (Figure 3). During solubilization and reformatting activities, 40 samples were identified with solubility issues and removed from the screening set, thereby leaving 5810 compounds (4623 scored + 1187 randomly selected). A primary screen was conducted at a single concentration (2 μM) against P. falciparum NF54 (nanoGlo readout over 72 h incubation). […] These compounds were then tested in five-point dose–response curve (DRC) assays, each of which provides key information to decide which compound(s) to progress (highlighted in blue). Five different assays were carried out, including three parasite growth assays over 72 h of incubation (P. falciparum NF54 in both nanoGlo and pLDH read-outs and P. falciparum Dd2 in pLDH read-out), one parasite growth assay over 12 h of incubation (P. falciparum NF54 in nanoGlo read-out) in order to evaluate the speed of action, and a cytotoxicity assay against human HepG2 cells over 72 h of incubation. Out of 36 screening active compounds (36 + 0) fulfilling all of the ideal criteria, 12 were deemed attractive in terms of chemical novelty and diversity for further progression and evaluation. This set of compounds was further complemented with others that passed at least three of the five DRC criteria, together with assessments of chemical novelty and diversity, which led to 33 selected compounds. Twenty-two compounds (those still available from commercial suppliers) were repurchased, and the compound efficacy was retested against P. falciparum 3D7 (pLDH readout over 72 h incubation) and human HepG2 cells over 72 h of incubation at a different testing center.
No unexpected or unusually high safety hazards were encountered.
(§2) The Medicines for Malaria Venture (MMV)’s P. falciparum asexual blood stage phenotypic screening platform was used to experimentally validate the selected compounds. Full details can be found in a recent publication.5 Briefly, the HTS cascade relies on a newly developed P. falciparum strain genetically modified to express a nano-luciferase reporter gene driven by the ef1α promoter. In addition to providing similar results compared to a fluorescence-based assay, this reporter provided a robust read-out for parasite replication with incubation times as short […]
(§3) The screening platform consists of a primary screening where the compounds were tested at a single concentration (2 μM) against the chloroquine and pyrimethamine sensitive P. falciparum strain NF54 using a nanoGlo detection reagent. Compounds that exceeded a Z-score threshold of -4 were screened a second time in this assay format in addition to an orthogonal assay (P. falciparum NF54, pLDH). Only the compounds inhibiting parasite growth by more than 30% were then tested in five dose-response curve (DRC) assays. These assays were designed to evaluate different aspects any future antimalarial drug has to fulfil: - sensitivity (P. falciparum NF54, nanoGlo and P. falciparum NF54, pLDH); - efficacy against resistant parasite strains (P. falciparum Dd2, pLDH); - low cellular toxicity (HepG2 cells). In addition, to evaluate their speed of action, […]

[2] = Solubility in PBS pH 7.4, miniaturised shake flask; type: physicochemical; conditions: kinetic from dmso stock, 25 °C
Description: Solubility in phosphate buffered saline (PBS) pH7.4
The solubility assay was performed using a miniaturised shake flask method. A solution of phosphate buffered saline (PBS) and the test compound (200 µM) was incubated at 25 °C with constant shaking (600 rpm) for 2 hours. The samples were filtered using a multiscreen solubility filter plate. The filtrate was half diluted in acetonitrile. A five-point linearity curve was prepared in PBS:Acetonitrile (1:1, v/v) at 200, 150, 75, 25 and 2.5 µM. Blank, linearity and test samples (n = 2) were transferred to a UV readable plate and the plate was scanned for absorbance. Best […]
fit calibration curves were constructed using the calibration standards and used to determine the test sample solubility. The experiment was carried out in duplicate. Diethylstilbestrol, haloperidol and sodium diclofenac were used as reference standards. […]

P. falciparum 3D7 [3] = assay: P. falciparum 3D7 parasite growth, pLDH readout, 72 h incubation; type: cell-based; conditions: Plasmodium falciparum, P. falciparum 3D7, pLDH readout, read-out: 3D7 LDH (72 h) IC50
Description: Afterwards, the remaining compounds were evaluated for their attractiveness derived from the chemical diversity relative to existing antimalarial drugs (Table S2 / Supplementary file SMILES-Table S2.xls) and calculated using Tanimoto similarity based on 2D molecular fingerprints. At this stage the list of remaining compounds was expanded with additional compounds that fulfilled at least 3 of the DRC assays criteria. Compounds still commercially available for re-stock were purchased and retested in a different laboratory against P. falciparum 3D7 with a pLDF read-out, […]
(§4) and in human HepG2 cells. […]
(§5) in the parasite growth inhibition assay, and higher than 10 μM in the cell viability assay obtained in two distinct locations. […]

[4] = Metabolic stability in cryopreserved rat hepatocytes; type: in vitro ADME
Description: Metabolic stability using cryopreserved rat hepatocytes
A solution of the test compound in Krebs-Henseleit buffer solution (1 µM) was incubated in […]
CO2, 95% relative humidity). The reaction was terminated with the addition of ice-cold acetonitrile containing system suitability standard at designated time points. The sample was centrifuged (4200 rpm) for 20 minutes at 20 °C and the supernatant was half diluted in water and then analysed by means of LC-MS/MS. Compound clearance (CLint,app) was calculated using standard methodology. The experiment was carried out in duplicate. Diltiazem, 7-ethoxy coumarin, propranolol and midazolam were used as reference standards. […]

[5] = LogD at pH 7.4, miniaturised shake flask; type: physicochemical
Description: The LogD pH7.4 assay was performed using a miniaturised shake flask method. A solution of a pre-saturated mixture of 1-octanol and PBS (1:1, v/v) and the test compound (75 µM) was incubated at 25 °C with constant shaking (850 rpm) for 2 hours. After incubation the organic and aqueous phases were separated, and samples of each phase transferred to plate for dilution. The organic phase was diluted to 1000-fold and the aqueous phase was diluted 20-fold. The samples were quantitated using LC-MS/MS. The experiment was carried out in duplicate. Propranolol, amitriptyline and midazolam were used as reference standards. […]

in vitro = type: cell-based; conditions: human
Description: as §1, with “center. […]” for “center.”
as §2, §3
versus 72 hours for the assays previously mentioned. […]
Compounds still commercially available for re-stock were purchased and retested in a different laboratory against P. falciparum 3D7 with a pLDF read-out, […]
as §4, §5

[6] = Metabolic stability in human liver microsomes; type: in vitro ADME; conditions: 1 µM compound, 0.5 mg/mL pooled human liver microsomes
Description: Metabolic stability study using human liver microsomes
A solution of the test compounds in phosphate buffer solution (1 µM) was incubated in pooled human liver microsomes (0.5 mg/mL) for 0, 5, 20, 30, 45 and 60 minutes at 37 °C in the presence and absence of NADPH regeneration system. The reaction was terminated with the addition of ice-cold acetonitrile containing system suitability standard at designated time points. The sample was centrifuged (4200 rpm) for 20 minutes at 20 °C and the supernatant was half diluted in water and then analysed by means of LC-MS/MS. Compound clearance (CLint,app) was […]
calculated using standard methodology. The experiment was carried out in duplicate.
Verapamil, diltiazem, phenacetin and imipramine were used as reference standards. […]

[7] = read-out: Antimalarial activity: XC50
[8] = phosphate buffered saline, aqueous buffer, PBS pH 7.4, test compound 200 µM, 2 hours, read-out: kinetic solubility
[9] = pooled cryopreserved rat hepatocytes, 1 µM compound, pooled rat hepatocytes 1×10^6 cells/mL, read-out: rat hepatocytes CLint
[10] = 1-octanol/PBS (1:1, v/v), pre-saturated, 1-octanol/PBS, pH 7.4, 25 °C, read-out: LogD pH 7.4
[11] = phosphate buffered saline, aqueous buffer, PBS pH 7.4, test compound 200 µM, 2 hours

## COc1c(C2CCN(CCN3CCC(CNC(=O)c4ccc(-c5ccc(C#N)cc5)cc4)CC3)CC2)ccc2c1CCCC2 [CHEMBL528171]
P. falciparum 3D7 [1]; [7]
  IC50: 445 nM

## CC1CCN(Cc2cccc(C(=O)NCc3ccc(F)c(-c4ccc(CN5CCN[C@H](C)C5)cc4)c3)c2)CC1 [CHEMBL580242]
P. falciparum 3D7 [1]; [7]
  IC50: 1460 nM

## Oc1cc(CN2CCC(O)(Cn3ccnc3)CC2)nc2c(Cl)cccc12 [CHEMBL3476473]
P. falciparum 3D7 [1]; read-out: Antimalarial activity: inhibition
  IC50: 882 nM

## CN1CCC(Oc2ccc(NC(=O)c3cn4ccnc4s3)cn2)CC1 [MMV1797331]
P. falciparum Dd2; DD2, 72 h
  IC50: 2000 nM
[2]; [8]
  solubility kinetic at 2 h: ≥ 200 µM
P. falciparum 3D7 [3]
  IC50: 1900 nM
[4]; [9]
  hepatocyte CLint at 1.5 h, 1 µM: 1.9 µL/min/1e6 cells
[5]; [10]
  logD at 2 h, 75 µM: 1
In vitro
  IC50 at 72 h: 21600 nM
[6]
  microsomal CLint at 1 h, 1 µM: 3.7 µL/min/mg

## c1ccc(-c2ccnc(C3CCN(CC45CNCC4C5)CC3)n2)cc1 (centres unmarked) [MMV1797658]
P. falciparum Dd2; DD2, 72 h
  IC50: 1500 nM
[2]; [8]
  solubility kinetic at 2 h: ≥ 200 µM
P. falciparum 3D7 [3]
  IC50: 780 nM
[4]; [9]
  hepatocyte CLint at 1.5 h, 1 µM: 7.2 µL/min/1e6 cells
[5]; [10]
  logD at 2 h, 75 µM: 0.5
In vitro
  IC50 at 72 h: 22100 nM
[6]
  microsomal CLint at 1 h, 1 µM: 3.5 µL/min/mg

## CN1CCN(CCCCNC2CC3CCC(C2)N3Cc2ccccc2)CC1 (centres unmarked) [MMV1797951]
P. falciparum Dd2; P. falciparum Dd2 (drug-resistant), pLDH readout, 72 h
  IC50: 980 nM
[2]; pH 7.4, aqueous buffer
  solubility kinetic at 2 h: ≥ 200 µM
P. falciparum 3D7 [3]
  IC50: 1000 nM
[4]; rat, hepatocytes
  hepatocyte CLint at 1.5 h, 1 µM: 1.4 µL/min/1e6 cells
[5]; pH 7.4
  logD at 2 h, 75 µM: -0.2
In vitro
  IC50 at 72 h: 13800 nM
[6]
  microsomal CLint at 1 h, 1 µM: 8.3 µL/min/mg

## CC1(N2CCC2)CCC(NCC2CCN(Cc3ccccc3)C2)CC1 (centres unmarked) [MMV1798925]
P. falciparum Dd2; DD2, 72 h
  IC50: 1500 nM
[2]; [11]
  solubility kinetic at 2 h, 200 µM: 173 µM (≈ 59.1 µg/mL)
P. falciparum 3D7 [3]
  IC50: 1100 nM
[4]; [9]
  hepatocyte CLint at 1.5 h, 1 µM: 7.2 µL/min/1e6 cells
[5]; [10]
  logD at 2 h, 75 µM: 0.3
In vitro
  IC50 at 72 h: 19100 nM
[6]
  microsomal CLint at 1 h, 1 µM: 3.5 µL/min/mg

## O=C(NC1CCN(CCOc2ccc(Cl)cc2)CC1)c1c[nH]c2ccncc2c1=O [MMV1798946]
P. falciparum Dd2; DD2, 72 h
  IC50: 2000 nM
[2]; [11]
  solubility kinetic at 2 h, 200 µM: 170 µM (≈ 72.6 µg/mL)
P. falciparum 3D7 [3]
  IC50: 750 nM
[4]; [9]
  hepatocyte CLint at 1.5 h, 1 µM: 2 µL/min/1e6 cells
[5]; 1-octanol/PBS (1:1, v/v), pre-saturated, 1-octanol/PBS, pH 7.4, 25 °C
  logD: 2.9
In vitro
  IC50 at 72 h: > 25000 nM
[6]
  microsomal CLint at 1 h, 1 µM: 14 µL/min/mg

## COc1ccc(-c2cncc(C(=O)NCC3CCN(CCN(C)C)CC3)c2)cc1 [MMV1799348]
P. falciparum Dd2; DD2, 72 h
  IC50: 2700 nM
[2]; [11]
  solubility kinetic at 2 h, 200 µM: 198 µM (≈ 78.5 µg/mL)
P. falciparum 3D7 [3]
  IC50: 1100 nM
[4]; [9]
  hepatocyte CLint at 1.5 h, 1 µM: 1.2 µL/min/1e6 cells
[5]; [10]
  logD at 2 h, 75 µM: 1.2
In vitro
  IC50 at 72 h: > 25000 nM
[6]
  microsomal CLint at 1 h, 1 µM: 3.5 µL/min/mg

## Cc1c(CN2CCC(O)(Cn3ccnc3)CC2)[nH]c2c(Cl)cccc12 [MMV1801316]
P. falciparum Dd2; DD2, 72 h
  IC50: 3600 nM
[2]; [11]
  solubility kinetic at 2 h, 200 µM: 86 µM (≈ 30.9 µg/mL)
P. falciparum 3D7 [3]
  IC50: 1500 nM
[4]; [9]
  hepatocyte CLint at 1.5 h, 1 µM: 2.7 µL/min/1e6 cells
[5]; [10]
  logD at 2 h, 75 µM: 2.8
In vitro
  IC50 at 72 h: > 25000 nM
[6]
  microsomal CLint at 1 h, 1 µM: 24.1 µL/min/mg

## Cc1cnccc1N1CCCN(Cc2ccccc2OCCN2CCN(C)CC2)CC1 [MMV1802771]
P. falciparum Dd2; DD2, 72 h
  IC50: 1100 nM
[2]; [11]
  solubility kinetic at 2 h, 200 µM: 100 µM (≈ 42.4 µg/mL)
P. falciparum 3D7 [3]
  IC50: 810 nM
[4]; [9]
  hepatocyte CLint at 1.5 h, 1 µM: 2.6 µL/min/1e6 cells
[5]; [10]
  logD at 2 h, 75 µM: 1
In vitro
  IC50 at 72 h: 20000 nM
[6]
  microsomal CLint at 1 h, 1 µM: 11 µL/min/mg
